# The source made the active and inactive calls. No cut-off for these calls is given here.
# Experiments:
# Rattus norvegicus [1] = assay: Neuroleptic activity in po dosed rat assessed as concentration required to cause 50% reduction of motor activity; type: functional
# Rattus norvegicus [2] = assay: Induction of catalepsy in po dosed rat measured for 0.5 to 18 hrs; type: organism-based; conditions: in vivo
# Mus musculus [3] = assay: Neuroleptic activity in mouse assessed as inhibition of d-amphetamine sulfate-induced lethality at 20 mg/kg, ip administered for 0.5 hrs followed by d-amphetamine sulfate challenge measured after 24 hrs; type: functional, organism-based; set-up: dose 20 mg/kg
# Mus musculus [4] = assay: Antidepressant activity in mouse assessed as inhibition of tetrabenazine hexamate-induced depression at 25 mg/kg, po administered 1 hr followed by tetrabenazine hexamate challenge measured after 30 mins; type: functional, organism-based; set-up: dose 25 mg/kg
# Mus musculus [5] = assay: Antidepressant activity in po dosed mouse assessed as inhibition of tetrabenazine hexamate-induced depression administered 1 hr followed by tetrabenazine hexamate challenge measured after 30 mins; type: functional; conditions: read-out: MED
# Mus musculus [6] = assay: Neuroleptic activity in po dosed mouse assessed as inhibition of d-amphetamine sulfate-induced lethality administered for 0.5 hrs followed by d-amphetamine sulfate challenge measured after 24 hrs; type: functional
# Rattus norvegicus [7] = assay: Neuroleptic activity in rat assessed as reduction of motor activity at 50 mg/kg, ip; type: functional, organism-based; set-up: dose 50 mg/kg
smiles,measurement,setting,value
OCCN1CCN(C2=Nc3ccccc3Nc3cscc32)CC1,MDD50,Rattus norvegicus [1],33.1 mg/kg
CN1CCN(C2=Nc3cc(Cl)ccc3Nc3cscc32)CC1,MDD50,Rattus norvegicus [1],13.9 mg/kg
same,ED50,Rattus norvegicus [2],16 mg/kg
Cc1cc2c(cc1C)N(C)c1cscc1C(N1CCN(C)CC1)=N2.O=C(O)/C=C/C(=O)O,MDD50,Rattus norvegicus [1],58 mg/kg
same,inhibition,Mus musculus [3],inactive
same,inhibition,Mus musculus [4],inactive
CCN1CCN(C2=Nc3ccccc3N(C)c3cscc32)CC1.O=C(O)/C=C/C(=O)O,minimal effective dose,Mus musculus [5],6.25 mg/kg
CN1CCN(C2=Nc3ccc(Cl)cc3N(C)c3cscc32)CC1,inhibition,Mus musculus [3],inactive
same,minimal effective dose,Mus musculus [5],12.5 mg/kg
CN1CCN(C2=Nc3cc(Cl)ccc3Nc3ccccc32)CC1 [CLOZAPINE],MDD50,Rattus norvegicus [1],21 mg/kg
same,ED50,Mus musculus [6],2 mg/kg
same,inhibition,Mus musculus [4],inactive
same,ED50,Rattus norvegicus [2],76 mg/kg
CCN1c2ccccc2N=C(N2CCN(C)CC2)c2cscc21.O=C(O)/C=C/C(=O)O,MDD50,Rattus norvegicus [1],23 mg/kg
same,ED50,Mus musculus [6],5.7 mg/kg
same,minimal effective dose,Mus musculus [5],6.25 mg/kg
CN1CCN(C2=Nc3cc(Cl)c(Cl)cc3N(C)c3cscc32)CC1.O=C(O)/C=C/C(=O)O,MDD50,Rattus norvegicus [1],35.9 mg/kg
same,ED50,Mus musculus [6],8 mg/kg
same,inhibition,Mus musculus [4],inactive
Cc1cc2c(cc1C)Nc1cscc1C(N1CCN(C)CC1)=N2,MDD50,Rattus norvegicus [1],26.2 mg/kg
CN1c2ccc(Cl)cc2N=C(N2CCN(CCO)CC2)c2cscc21.Cl,MDD50,Rattus norvegicus [1],20.4 mg/kg
same,ED50,Mus musculus [6],2 mg/kg
same,inhibition,Mus musculus [4],inactive
same,ED50,Rattus norvegicus [2],13 mg/kg
CN1CCN(C2=Nc3ccc(Cl)cc3Nc3cscc32)CC1,MDD50,Rattus norvegicus [1],12.3 mg/kg
same,inhibition,Mus musculus [3],inactive
same,ED50,Rattus norvegicus [2],16 mg/kg
CCN1CCN(C2=Nc3ccccc3Nc3cscc32)CC1,MDD50,Rattus norvegicus [1],6.3 mg/kg
CN(C)C1=Nc2ccccc2Nc2cscc21,MDD50,Rattus norvegicus [1],26.5 mg/kg
CN1c2ccccc2N=C(N2CCN(CCO)CC2)c2cscc21.O=C(O)/C=C/C(=O)O,MDD50,Rattus norvegicus [1],21.3 mg/kg
same,inhibition,Mus musculus [3],inactive
same,minimal effective dose,Mus musculus [5],12.5 mg/kg
CN1CCN(C2=Nc3cc(Cl)ccc3N(C)c3cscc32)CC1.O=C(O)/C=C/C(=O)O,MDD50,Rattus norvegicus [1],17 mg/kg
same,ED50,Mus musculus [6],1.4 mg/kg
same,inhibition,Mus musculus [4],inactive
same,ED50,Rattus norvegicus [2],40 mg/kg
CCCN1CCN(C2=Nc3cc(Cl)ccc3N(C)c3cscc32)CC1.O=C(O)/C=C/C(=O)O,MDD50,Rattus norvegicus [1],24 mg/kg
same,inhibition,Mus musculus [3],inactive
same,inhibition,Mus musculus [4],inactive
Cc1cc2c(cc1C)Nc1cscc1C(N1CCCCC1)=N2,MDD50,Rattus norvegicus [1],50 mg/kg
same,inhibition,Mus musculus [3],inactive
CN1CCN(C2=Nc3ccccc3N(C)c3cscc32)CC1,MDD50,Rattus norvegicus [1],12 mg/kg
same,ED50,Mus musculus [6],3.6 mg/kg
same,minimal effective dose,Mus musculus [5],3.1 mg/kg
same,ED50,Rattus norvegicus [2],14 mg/kg
CN1CCN(C2=Nc3ccccc3N(C)c3cscc32)CC1.O=C(O)/C=C/C(=O)O,MDD50,Rattus norvegicus [1],8.7 mg/kg
same,ED50,Mus musculus [6],4.8 mg/kg
same,minimal effective dose,Mus musculus [5],3.1 mg/kg
COc1ccc2c(c1)Nc1cscc1C(N1CCN(C)CC1)=N2,MDD50,Rattus norvegicus [1],16.1 mg/kg
same,ED50,Mus musculus [6],1.1 mg/kg
same,ED50,Rattus norvegicus [2],15 mg/kg
Cc1ccc2c(c1)Nc1cscc1C(N1CCN(C)CC1)=N2,MDD50,Rattus norvegicus [1],9 mg/kg
same,ED50,Mus musculus [6],5.8 mg/kg
CN1c2ccccc2N=C(N2CCNCC2)c2cscc21.O=C(O)/C=C/C(=O)O,inhibition,Mus musculus [3],inactive
same,minimal effective dose,Mus musculus [5],3.1 mg/kg
same,Activity,Rattus norvegicus [7],inactive
CN(C)CCCN1c2ccccc2Sc2ccc(Cl)cc21 [CHLORPROMAZINE],MDD50,Rattus norvegicus [1],2 mg/kg
same,ED50,Mus musculus [6],0.6 mg/kg
same,inhibition,Mus musculus [4],inactive
same,ED50,Rattus norvegicus [2],7 mg/kg
CCN1c2ccccc2N=C(N2CCN(CCO)CC2)c2cscc21.O=C(O)/C=C/C(=O)O,MDD50,Rattus norvegicus [1],50 mg/kg
same,inhibition,Mus musculus [4],inactive
CCN1CCN(C2=Nc3ccccc3N(CC)c3cscc32)CC1.O=C(O)/C=C/C(=O)O,MDD50,Rattus norvegicus [1],28 mg/kg
same,minimal effective dose,Mus musculus [5],25 mg/kg
CCN1CCN(C2=Nc3cc(Cl)ccc3N(C)c3cscc32)CC1.O=C(O)/C=C/C(=O)O,MDD50,Rattus norvegicus [1],7.3 mg/kg
same,ED50,Mus musculus [6],1.1 mg/kg
same,inhibition,Mus musculus [4],inactive
CN1CCN(C2=Nc3ccccc3Nc3cscc32)CC1,MDD50,Rattus norvegicus [1],6.1 mg/kg
same,ED50,Mus musculus [6],6 mg/kg
same,ED50,Rattus norvegicus [2],11 mg/kg
CCCN1CCN(C2=Nc3ccccc3Nc3cscc32)CC1,MDD50,Rattus norvegicus [1],27 mg/kg
same,ED50,Mus musculus [6],6 mg/kg
CN(C)CCCN1c2ccccc2CCc2ccccc21 [IMIPRAMINE],MDD50,Rattus norvegicus [1],>50 mg/kg
same,ED50,Mus musculus [6],> 20 mg/kg
same,minimal effective dose,Mus musculus [5],12 mg/kg
CC(=O)OCCN1CCN(C2=Nc3cc(Cl)ccc3N(C)c3cscc32)CC1.O=C(O)/C=C/C(=O)O,MDD50,Rattus norvegicus [1],26.7 mg/kg
same,ED50,Mus musculus [6],3.2 mg/kg
same,inhibition,Mus musculus [4],inactive
Cc1cc2c(cc1C)Nc1cscc1C(NCCN1CCCCC1)=N2,MDD50,Rattus norvegicus [1],50 mg/kg
same,inhibition,Mus musculus [3],inactive
CN1CCN(C2=Nc3ccccc3N(C)c3c2csc3Cl)CC1.O=C(O)/C=C/C(=O)O,inhibition,Mus musculus [3],inactive
same,minimal effective dose,Mus musculus [5],3.1 mg/kg
same,Activity,Rattus norvegicus [7],inactive
c1ccc2c(c1)N=C(NCCN1CCCCC1)c1cscc1N2,MDD50,Rattus norvegicus [1],37 mg/kg

# — ChEMBL document CHEMBL3227931, “10-(Alkylamino)-4H-thieno[3,4-b][1,5]benzodiazepines. A novel class of potential neuroleptic agents” (J Med Chem, 1979)
